One test concerns HUVEC cells. Description: Cell proliferation experiment, HUVEC. The note with it: Homo sapiens, 72 h, read-out: Inhibitory activity IC50 of tested compounds on HUVEC cells. The class given is cell-based. As for the experimental part:
(§1) Reagents: RPMI-1640 medium, McCoy's 5A medium, IMDM medium, MEM medium, L-15 medium, fetal bovine serum. Penicillin-Streptomycin double antibody, trypsin, etc., 2-mercaptoethanol, NEAA, pyruvate, etc.
(§2) The cells were cultured in conventional ways, and the cells should be passed at least 2 generations before plating. Cells at the logarithmic growth phase were collected, prepared into single cell suspensions and counted. The concentration of cells was adjusted to the desired concentration, and cells were inoculated into a 96-well cell culture plate at 100 μl per well. 100 μL of complete medium of the test compound were added to each well, set up 2 duplicate wells for each concentration, and diluted with a 5-fold gradient, and continued to culture for 72 h. All cells were subjected to IC50 test for corresponding samples. The experimental results are shown in Test Example 4.
(§3) The fluorescence intensity of each well was detected using the Alarm blue method, and IC50 was calculated.
(§4) IC50 was calculated according to the following formula:
(§5) Y=Max+(Min−Max)/[1+(X/IC50)×Slope]
(§6) wherein Min, Max and Slope represent the minimum, maximum and slope respectively.
Broadly, the IC50 is the concentration that inhibits the measured activity by half. For `CC[C@@H]1C(=O)N(C)c2cnc(Nc3ccc(C(=O)NC4CCN(CCCOCCN(C)CCCC#Cc5cccc6c5CN(C5CCC(=O)NC5=O)C6=O)CC4)cc3OC)nc2N1C1CCCC1` (stereo partly drawn) [Compound 924], the IC50 was at most 1000 nM.
For the compound `CC[C@@H]1C(=O)N(C)c2cnc(Nc3ccc(C(=O)NC4CCC(N5CCN(CCCC(=O)NC#Cc6cccc7c6CN(C6CCC(=O)NC6=O)C7=O)CC5)CC4)cc3OC)nc2N1C1CCCC1` (stereo partly drawn) [Compound 926], the IC50 is at most 1000 nM.
The same measure, in the same setting: next, `CC[C@@H]1C(=O)N(C)c2cnc(Nc3ccc(C(=O)NCCCOCCN(C)CCC#Cc4cccc5c4CN(C4CCC(=O)NC4=O)C5=O)cc3OC)nc2N1C1CCCC1` (stereo partly drawn) [Compound 927]: at most 1000 nM; `CC[C@@H]1C(=O)N(C)c2cnc(Nc3ccc(C(=O)NC4CCN(C5CN(CCC#Cc6cccc7c6CN(C6CCC(=O)NC6=O)C7=O)C5)CC4)cc3OC)nc2N1C1CCCC1` (stereo partly drawn) [Compound 928]: at most 1000 nM; `CC[C@@H]1C(=O)N(C)c2cnc(Nc3ccc(C(=O)NCCCOCCCOCCN(C)CCC#Cc4cccc5c4CN(C4CCC(=O)NC4=O)C5=O)cc3OC)nc2N1C1CCCC1` (stereo partly drawn) [Compound 930]: at most 1000 nM.

For a further test, the system named is U-87MG cells. In words: Cell proliferation experiment, U-87MG. The class given is cell-based. The note with it: Homo sapiens; U-87MG cells, 72 h; read-out: Inhibitory activity IC50 of tested compounds on U-87MG cells. As for the experimental part:
as §1, §2, §3, §4, §5, §6
As to `CC[C@@H]1C(=O)N(C)c2cnc(Nc3ccc(C(=O)NC4CCN(CCCOCCN(C)CCCC#Cc5cccc6c5CN(C5CCC(=O)NC5=O)C6=O)CC4)cc3OC)nc2N1C1CCCC1` (stereo partly drawn) [Compound 924], the IC50 was 100 to 500 nM.
On the same count and under the same terms, under `CC[C@@H]1C(=O)N(C)c2cnc(Nc3ccc(C(=O)NC4CCC(N5CCN(CCCC(=O)NC#Cc6cccc7c6CN(C6CCC(=O)NC6=O)C7=O)CC5)CC4)cc3OC)nc2N1C1CCCC1` (stereo partly drawn) [Compound 926] stands 100 to 500 nM; under `CC[C@@H]1C(=O)N(C)c2cnc(Nc3ccc(C(=O)NCCCOCCN(C)CCC#Cc4cccc5c4CN(C4CCC(=O)NC4=O)C5=O)cc3OC)nc2N1C1CCCC1` (stereo partly drawn) [Compound 927], at most 100 nM; under `CC[C@@H]1C(=O)N(C)c2cnc(Nc3ccc(C(=O)NC4CCN(C5CN(CCC#Cc6cccc7c6CN(C6CCC(=O)NC6=O)C7=O)C5)CC4)cc3OC)nc2N1C1CCCC1` (stereo partly drawn) [Compound 928], at most 100 nM.
Still for that read-out and setting: next, `CC[C@@H]1C(=O)N(C)c2cnc(Nc3ccc(C(=O)NCCCOCCCOCCN(C)CCC#Cc4cccc5c4CN(C4CCC(=O)NC4=O)C5=O)cc3OC)nc2N1C1CCCC1` (stereo partly drawn) [Compound 930]: at most 100 nM.

The test system of another test is Daudi cells. In words: Cell proliferation experiment, Daudi. The class given is cell-based, human. The note with it: Homo sapiens, Daudi, 72 h, Daudi cells, 72 h; read-out: Inhibitory activity IC50 of tested compounds on Daudi cells. A digest of the protocol:
(§7)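 Viability measured by Alamar blue fluorescence after 72 h culture with compound (5-fold serial dilutions, two wells each) added to log-phase cells. IC50 derived from a Min/Max/Slope logistic equation.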
`CC[C@@H]1C(=O)N(C)c2cnc(Nc3ccc(C(=O)NC4CCN(CCCOCCN(C)CCCC#Cc5cccc6c5CN(C5CCC(=O)NC5=O)C6=O)CC4)cc3OC)nc2N1C1CCCC1` (stereo partly drawn) [Compound 924]: the IC50 was at most 100 nM.
Same read-out and setting: next, `CC[C@@H]1C(=O)N(C)c2cnc(Nc3ccc(C(=O)NC4CCC(N5CCN(CCCC(=O)NC#Cc6cccc7c6CN(C6CCC(=O)NC6=O)C7=O)CC5)CC4)cc3OC)nc2N1C1CCCC1` (stereo partly drawn) [Compound 926]: at most 100 nM; `CC[C@@H]1C(=O)N(C)c2cnc(Nc3ccc(C(=O)NCCCOCCN(C)CCC#Cc4cccc5c4CN(C4CCC(=O)NC4=O)C5=O)cc3OC)nc2N1C1CCCC1` (stereo partly drawn) [Compound 927]: at most 100 nM; `CC[C@@H]1C(=O)N(C)c2cnc(Nc3ccc(C(=O)NC4CCN(C5CN(CCC#Cc6cccc7c6CN(C6CCC(=O)NC6=O)C7=O)C5)CC4)cc3OC)nc2N1C1CCCC1` (stereo partly drawn) [Compound 928]: at most 100 nM.
Same read-out and setting: next, `CC[C@@H]1C(=O)N(C)c2cnc(Nc3ccc(C(=O)NCCCOCCCOCCN(C)CCC#Cc4cccc5c4CN(C4CCC(=O)NC4=O)C5=O)cc3OC)nc2N1C1CCCC1` (stereo partly drawn) [Compound 930]: at most 100 nM.

The next test relates to MV4;11 cells. Description: Cell proliferation experiment (Alamar blue, 72 h), MV4;11. The note with it: Homo sapiens, MV4-11, 72 h, MV4;11 cells, 72 h; read-out: Inhibitory activity IC50 of tested compounds on MV4;11 cells. In kind it is cell-based, human. In outline: as §7
(In general: The colour change of resazurin is a common sign of viable cells or microbes.)
Consider `CC[C@@H]1C(=O)N(C)c2cnc(Nc3ccc(C(=O)NC4CCN(CCCOCCN(C)CCCC#Cc5cccc6c5CN(C5CCC(=O)NC5=O)C6=O)CC4)cc3OC)nc2N1C1CCCC1` (stereo partly drawn) [Compound 924], for which the IC50 was at most 100 nM.
On the same count and under the same terms, next, `CC[C@@H]1C(=O)N(C)c2cnc(Nc3ccc(C(=O)NC4CCC(N5CCN(CCCC(=O)NC#Cc6cccc7c6CN(C6CCC(=O)NC6=O)C7=O)CC5)CC4)cc3OC)nc2N1C1CCCC1` (stereo partly drawn) [Compound 926]: at most 100 nM; `CC[C@@H]1C(=O)N(C)c2cnc(Nc3ccc(C(=O)NCCCOCCN(C)CCC#Cc4cccc5c4CN(C4CCC(=O)NC4=O)C5=O)cc3OC)nc2N1C1CCCC1` (stereo partly drawn) [Compound 927]: at most 100 nM.
As to `CC[C@@H]1C(=O)N(C)c2cnc(Nc3ccc(C(=O)NC4CCN(C5CN(CCC#Cc6cccc7c6CN(C6CCC(=O)NC6=O)C7=O)C5)CC4)cc3OC)nc2N1C1CCCC1` (stereo partly drawn) [Compound 928], the IC50 is at most 100 nM.
Turning to `CC[C@@H]1C(=O)N(C)c2cnc(Nc3ccc(C(=O)NCCCOCCCOCCN(C)CCC#Cc4cccc5c4CN(C4CCC(=O)NC4=O)C5=O)cc3OC)nc2N1C1CCCC1` (stereo partly drawn) [Compound 930], the IC50 is at most 100 nM.

The next test has as its system HT-29 cells. In words: Cell proliferation experiment, HT-29. The class given is cell-based. The note with it: Homo sapiens; HT-29 cells, 72 h; read-out: Inhibitory activity IC50 of tested compounds on HT-29 cells. On the procedure:
as §1, §2, §3, §4, §5, §6
As to `CC[C@@H]1C(=O)N(C)c2cnc(Nc3ccc(C(=O)NC4CCN(CCCOCCN(C)CCCC#Cc5cccc6c5CN(C5CCC(=O)NC5=O)C6=O)CC4)cc3OC)nc2N1C1CCCC1` (stereo partly drawn) [Compound 924], the IC50 was at most 300 nM.
`CC[C@@H]1C(=O)N(C)c2cnc(Nc3ccc(C(=O)NC4CCC(N5CCN(CCCC(=O)NC#Cc6cccc7c6CN(C6CCC(=O)NC6=O)C7=O)CC5)CC4)cc3OC)nc2N1C1CCCC1` (stereo partly drawn) [Compound 926]: the IC50 was in the range of 300 to 1000 nM.
On the same count and under the same terms, next, `CC[C@@H]1C(=O)N(C)c2cnc(Nc3ccc(C(=O)NCCCOCCN(C)CCC#Cc4cccc5c4CN(C4CCC(=O)NC4=O)C5=O)cc3OC)nc2N1C1CCCC1` (stereo partly drawn) [Compound 927]: at most 300 nM.
Still for that read-out and setting: under `CC[C@@H]1C(=O)N(C)c2cnc(Nc3ccc(C(=O)NC4CCN(C5CN(CCC#Cc6cccc7c6CN(C6CCC(=O)NC6=O)C7=O)C5)CC4)cc3OC)nc2N1C1CCCC1` (stereo partly drawn) [Compound 928] stands at most 300 nM; under `CC[C@@H]1C(=O)N(C)c2cnc(Nc3ccc(C(=O)NCCCOCCCOCCN(C)CCC#Cc4cccc5c4CN(C4CCC(=O)NC4=O)C5=O)cc3OC)nc2N1C1CCCC1` (stereo partly drawn) [Compound 930], at most 300 nM.

In the next test the test system is NCIH82 cells. Description: Cell proliferation experiment, NCI-H82. The class given is cell-based, human. The note with it: Homo sapiens, NCI-H82, 72 h, NCIH82 cells, 72 h; read-out: Inhibitory activity IC50 of tested compounds on NCIH82 cells. A digest of the protocol:
as §7
With `CC[C@@H]1C(=O)N(C)c2cnc(Nc3ccc(C(=O)NC4CCN(CCCOCCN(C)CCCC#Cc5cccc6c5CN(C5CCC(=O)NC5=O)C6=O)CC4)cc3OC)nc2N1C1CCCC1` (stereo partly drawn) [Compound 924], the IC50 was at most 1000 nM.
Consider `CC[C@@H]1C(=O)N(C)c2cnc(Nc3ccc(C(=O)NC4CCC(N5CCN(CCCC(=O)NC#Cc6cccc7c6CN(C6CCC(=O)NC6=O)C7=O)CC5)CC4)cc3OC)nc2N1C1CCCC1` (stereo partly drawn) [Compound 926], for which the IC50 is at most 1000 nM.
Still for that read-out and setting: under `CC[C@@H]1C(=O)N(C)c2cnc(Nc3ccc(C(=O)NCCCOCCN(C)CCC#Cc4cccc5c4CN(C4CCC(=O)NC4=O)C5=O)cc3OC)nc2N1C1CCCC1` (stereo partly drawn) [Compound 927] stands at most 1000 nM; under `CC[C@@H]1C(=O)N(C)c2cnc(Nc3ccc(C(=O)NC4CCN(C5CN(CCC#Cc6cccc7c6CN(C6CCC(=O)NC6=O)C7=O)C5)CC4)cc3OC)nc2N1C1CCCC1` (stereo partly drawn) [Compound 928], at most 1000 nM.
The same measure, in the same setting: under `CC[C@@H]1C(=O)N(C)c2cnc(Nc3ccc(C(=O)NCCCOCCCOCCN(C)CCC#Cc4cccc5c4CN(C4CCC(=O)NC4=O)C5=O)cc3OC)nc2N1C1CCCC1` (stereo partly drawn) [Compound 930] stands at most 1000 nM.
